Read-outs that look alike come from different tables or passages of the source.
Columns and labels:
Molm-13 cells = experiment: Leukemia cell proliferation inhibition test (ATPlite), Molm-13; assay type: cell-based; conditions: Molm-13, 72 hours culture, ATPlite, GI50 per method, read-out: MOLM13 cell proliferation inhibition effect
Method: (§1) A leukemia cell proliferation inhibition test was performed for the compounds of the present invention by using the leukemia cell strains MV4-11 (ATCC Number, CRL-9591) and Molm-13 (DSMZ Number, ACC554).
(§2) The leukemia cell proliferation inhibition test was performed by the method described below.
(§3) For the purpose of measuring proliferation inhibition attained with a compound, the total cell count was quantified on the basis of the total cellular ATP concentration using the ATPlite (PerkinElmer) reagent utilizing firefly luciferase. The Molm-13 or MV4-11 cells were added to the RPMI medium containing penicillin and streptomycin (penn/strep) and 10% FBS at a density of 2×10^5 cells/ml, and 50 μL (10,000 cells) of the cell suspension was inoculated to each well of a 96-well plate (Corning).
(§4) A serially diluted solution of a compound or 0.1% DMSO (solvent control) in a volume of 50 μL was added to the cells, and then the cells were cultured for 72 hours under the standard cell proliferation conditions (37° C., 5% CO2) to allow proliferation of the cells. In order to measure the proliferation of the total cells, equal volume of the ATPlite reaction mixture was added to each well in accordance with the instructions attached to ATPlite, and then luminescence count of the well was measured (relative light unit, RLU).
(§5) The RLU signal observed with the DMSO solvent control after 72 hours of the culture was defined as a signal indicating 0% inhibition, and the GI50 value for the proliferation inhibition corresponds to a concentration of a compound that provides 50% inhibition based on the proliferation of the total cells contained in the DMSO solvent control. Each data point was obtained from samples in duplicate. The GI50 values were calculated by the non-linear regression fitting (Fit Model (205)) according to a sigmoid dose-reaction equation using the XLfit software.

[1] = molecular target: T1, human FLT3 protein (FLT3 (WT)) (Homo sapiens, UniProt P36888); experiment: FLT3 inhibition test (FLT3 enzyme inhibition, time-resolved fluorescence of substrate peptide phosphorylation); assay type: biochemical; conditions: GST-fused human FLT3 (564 to 993 aa), ATP 50 μM; read-out: FLT3 (WT) enzyme inhibition activity
T1 construct: human FLT3 protein (intracellular region, 564 to 993 aa); GST; purchased Carna Biosciences; host or cells: baculovirus expression system
T1 sequence (P36888 564-993): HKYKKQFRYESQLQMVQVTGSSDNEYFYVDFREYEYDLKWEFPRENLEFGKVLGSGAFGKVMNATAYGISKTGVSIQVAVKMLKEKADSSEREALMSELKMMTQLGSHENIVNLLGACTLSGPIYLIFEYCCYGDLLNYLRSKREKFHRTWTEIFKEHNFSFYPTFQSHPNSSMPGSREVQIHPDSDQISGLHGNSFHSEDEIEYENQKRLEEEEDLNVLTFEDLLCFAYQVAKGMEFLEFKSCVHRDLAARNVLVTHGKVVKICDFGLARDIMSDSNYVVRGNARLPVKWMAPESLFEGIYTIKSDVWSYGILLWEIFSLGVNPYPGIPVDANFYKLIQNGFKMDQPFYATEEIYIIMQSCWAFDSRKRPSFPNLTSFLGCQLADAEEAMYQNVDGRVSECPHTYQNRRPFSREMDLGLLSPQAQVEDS
Method: The FLT3 inhibition test was performed for the compounds of the present invention by the method described below.
A reaction mixture in a volume of 9 μL containing the FLT3 protein and a test compound of a predetermined concentration (1.2 μg of FLT3, 100 mM HEPES, 10 mM MgCl2, 25 mM NaCl, 0.01% BSA, 1 mM DTT, pH 7.5) was left standing at 25° C. for 15 minutes. […] (Toray Industries), and 3 μL (final concentration 50 μM) of ATP (Sigma-Aldrich) were added to the reaction mixture, and the mixture was shaken for 2 minutes, and then further left standing at 25° C. for 30 minutes to allow the enzymatic reaction.

MV4-11 cells = experiment: Leukemia cell proliferation inhibition test (ATPlite), MV4-11; assay type: cell-based; conditions: MV4-11, 72 hours culture, ATPlite, GI50 per method, read-out: MV4-11 cell proliferation inhibition effect
Method: as §1, §2, §3, §4, §5

SMILES | IC50 (Molm-13 cells; Homo sapiens, MOLM-13, 72 h) | IC50 [1] | IC50 (MV4-11 cells; Homo sapiens, MV4-11, 72 h) | IC50 (Molm-13 cells) | IC50 (MV4-11 cells)
CCCNc1nc(Nc2ccc(C(N)=O)cc2)ncc1C(=O)NC1CCCC(NC(=O)CN(C)C(=O)/C=C/CN(C)C)C1 (stereo not drawn) [Compound 3-4, (E)-2-((4-Carbamoylphenyl)amino)-N-(3-(2-(4-(dimethylamino)-N-methyl-2-butenamido)actamido)cyclohexyl)-4-(propylamino)pyrimidine-5-carboxamide] | < 10 nM | < 10 nM | < 10 nM |  | 
CCCNc1nc(Nc2ccc(C(N)=O)cc2)ncc1C(=O)Nc1ccc(NC(=O)/C=C/CN(C)C)cc1 [Compound 3-6] | > 1000 nM | < 10 nM | 100 to 1000 nM |  | 
CCCNc1nc(Nc2ccc(C(N)=O)cc2)ncc1C(=O)Nc1cccc(NC(=O)[C@H](C)N(C)C(=O)/C=C/CBr)c1 [Compound 3-7, (S,E)-N-(3-(2-(4-bromo-N-methyl-2-butenamido)propanamido)phenyl)-2-((4-carbamoylphenyl)amino)-4-(propylamino)pyrimidine-5-carboxamide] | 10 to 100 nM | < 10 nM | 10 to 100 nM |  | 
C=CC(=O)NCC(=O)Nc1cccc(NC(=O)c2cnc(Nc3ccc(C(N)=O)cc3)nc2NCCC)c1 [Compound 3-8] | 10 to 100 nM | < 10 nM | 10 to 100 nM |  | 
C/C=C/C(=O)N(C)[C@@H](C)C(=O)Nc1cccc(NC(=O)c2cnc(Nc3ccc(C(N)=O)cc3)nc2NCCC)c1 [Compound 3-9] | 10 to 100 nM | < 10 nM | 10 to 100 nM |  | 
C=C(C)C(=O)N(C)[C@@H](C)C(=O)Nc1cccc(NC(=O)c2cnc(Nc3ccc(C(N)=O)cc3)nc2NCCC)c1 [Compound 3-10] | 100 to 1000 nM | < 10 nM | 100 to 1000 nM |  | 
CC#CC(=O)N(C)[C@@H](C)C(=O)Nc1cccc(NC(=O)c2cnc(Nc3ccc(C(N)=O)cc3)nc2NCCC)c1 [Compound 3-11] | 10 to 100 nM | < 10 nM | < 10 nM |  | 
CCCNc1nc(Nc2ccc(C(N)=O)cc2)ncc1C(=O)Nc1cccc(NC(=O)[C@H](C)NC(=O)/C=C/CN(C)C)c1 [Compound 3-12] | 10 to 100 nM | < 10 nM | 10 to 100 nM |  | 
CCCNc1nc(Nc2ccc(C(N)=O)cc2)ncc1C(=O)Nc1cccc(NC(=O)C(C)(C)NC(=O)/C=C/CN(C)C)c1 [Compound 3-13] | 10 to 100 nM | < 10 nM | 10 to 100 nM |  | 
CCCNc1nc(Nc2ccc(C(N)=O)cc2)ncc1C(=O)Nc1ccccc1CNC(=O)[C@H](C)N(C)C(=O)/C=C/CN(C)C [Compound 3-15] | 100 to 1000 nM | < 10 nM | 100 to 1000 nM |  | 
CCCNc1nc(Nc2ccc(C(N)=O)cc2)ncc1C(=O)Nc1cccc(NC(CNC(=O)/C=C/CN(C)C)C(F)(F)F)c1 (stereo not drawn) [Compound 3-17] | > 1000 nM | < 10 nM | 100 to 1000 nM |  | 
CCCNc1nc(Nc2ccc(C(N)=O)cc2)ncc1C(=O)Nc1ccc2nc(CNC(=O)/C=C/CN(C)C)[nH]c2c1 [Compound 3-18] | > 1000 nM | < 10 nM | > 1000 nM |  | 
CCCNc1nc(Nc2ccc(C(N)=O)cc2)ncc1C(=O)Nc1cccc(NC2CCCN(C(=O)/C=C/CN(C)C)C2)c1 (stereo not drawn) [Compound 3-19] | 100 to 1000 nM | < 10 nM | 10 to 100 nM |  | 
CCCNc1nc(Nc2ccc(C(N)=O)cc2)ncc1C(=O)Nc1cccc(NC2CCN(C(=O)/C=C/CN(C)C)C2)c1 (stereo not drawn) [Compound 3-20] | 100 to 1000 nM | < 10 nM | 10 to 100 nM |  | 
CCCNc1nc(Nc2ccc(C(N)=O)cc2)ncc1C(=O)Nc1cccc(NC2CCCN(C(=O)/C=C/CN(C)C)CC2)c1 (stereo not drawn) [Compound 3-21] | 100 to 1000 nM | < 10 nM | 100 to 1000 nM |  | 
CCCNc1nc(Nc2ccc(C(N)=O)cc2)ncc1C(=O)NCCCNC(C)(C)CNC(=O)/C=C/CN(C)C [Compound 3-24] | 100 to 1000 nM | < 10 nM | 10 to 100 nM |  | 
CCCNc1nc(Nc2ccc(C(N)=O)cc2)ncc1C(=O)N[C@H]1CCC[C@H](Nc2ccccc2NC(=O)/C=C/CN(C)C)C1 [Compound 3-27] |  | < 10 nM |  | 10 to 100 nM | 10 to 100 nM
CCCNc1nc(Nc2ccc(C(N)=O)cc2)ncc1C(=O)N[C@@H]1CCC[C@H](Nc2ccccc2NC(=O)/C=C/CN(C)C)C1 [Compound 3-28] |  | < 10 nM |  | 100 to 1000 nM | 100 to 1000 nM
CCCNc1nc(Nc2ccc(C(N)=O)cc2)ncc1C(=O)NCCCNc1ncccc1NC(=O)/C=C/CN(C)C [Compound 3-29] | 10 to 100 nM | < 10 nM | 10 to 100 nM |  | 
CCCNc1nc(Nc2ccc(C(N)=O)cc2)ncc1C(=O)Nc1cccc(NC(=O)[C@@H]2CCCN2C(=O)/C=C/CN(C)C)c1 [Compound 3-30] | 10 to 100 nM | < 10 nM | < 10 nM |  | 
CCCNc1nc(Nc2ccc(C(N)=O)cc2)ncc1C(=O)Nc1cccc(N2CCN(C(=O)/C=C/CN(C)C)CC2)c1 [Compound 3-31] | 100 to 1000 nM | < 10 nM | 100 to 1000 nM |  | 
CCCNc1nc(Nc2ccc(C(N)=O)cc2)ncc1C(=O)Nc1cccc(NC(=O)[C@H](C)N(C)C(=O)/C=C/CN2CCNCC2)c1 [Compound 4-1, (S,E)-2-((4-carbamoylphenyl)amino)-N-(3-(2-(N-methyl-4-(piperazin-1-yl)-2-butenamido)propanamido)phenyl)-4-(propylamino)pyrimidine-5-carboxamide] | 10 to 100 nM | < 10 nM | 10 to 100 nM |  | 
CCCNc1nc(Nc2ccc(C(N)=O)cc2)ncc1C(=O)Nc1cccc(NC(=O)[C@H](C)N(C)C(=O)/C=C/CNC)c1 [Compound 4-2] | < 10 nM | < 10 nM | < 10 nM |  | 
CCCNc1nc(Nc2ccc(C(N)=O)cc2)ncc1C(=O)Nc1cccc(NC(=O)[C@H](C)N(C)C(=O)/C=C/CN(C)CC)c1 [Compound 4-3] | < 10 nM | < 10 nM | < 10 nM |  | 
CCCNc1nc(Nc2ccc(C(N)=O)cc2)ncc1C(=O)Nc1cccc(NC(=O)[C@H](C)N(C)C(=O)/C=C/CNC(C)(C)C)c1 [Compound 4-4] | < 10 nM | < 10 nM | < 10 nM |  | 
CCCNc1nc(Nc2ccc(C(N)=O)cc2)ncc1C(=O)Nc1cccc(NC(=O)[C@H](C)N(C)C(=O)/C=C/CN2CC(O)C2)c1 [Compound 4-5] | < 10 nM | < 10 nM | < 10 nM |  | 

From patent US9145415B2, “Nitrogen-containing heterocyclic compound or salt thereof” (FUJIFILM Corporation, priority 2012, dated 2015)
